The results in this text go back to patent publication US11560370B1, “5-membered heteroaryl carboxamide compounds for treatment of HBV” (Assembly Biosciences, Inc., priority 2018, dated 2023).

The first test relates to HBV. As to the kind of experiment: Viral production from HepAD38 cells, viral load by qPCR of HBV core sequence. Type of test: cell-based. To be noted: 5 days, supernatant HBV DNA by qPCR, read-out: Viral Load EC50 Activity range. Put shortly: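 HepAD38 cells in tetracycline-free medium with 2% FBS, 50,000 cells/well, treated 5 days at 37° C. with compound from 10 μM top concentration (1% DMSO final). Supernatant HBV DNA measured by TaqMan qPCR of core sequence against standards, versus DMSO wells; viability by CellTiter-Glo; EC50/CC50 by four-parameter fit.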
In general terms: In qPCR the cycle at which signal appears reflects the starting amount.
On to `COc1cc(C(=O)NCCS(C)(=O)=O)ccc1C1CCC(c2nn(C)c(N)c2C(=O)Nc2ccc(F)c(Cl)c2)C1` (stereo not drawn) [AIA-387-2, 5-Amino-N-(3-chloro-4-fluorophenyl)-3-(3-(2-methoxy-4-((2-(methylsulfonyl)ethyl)carbamoyl)phenyl)cyclopentyl)-1-methyl-1H-pyrazole-4-carboxamide], for which the half-maximal effective concentration (EC50) is less than 100 nM.
In the case of `Cn1cc(C(=O)Nc2ccc(F)c(Cl)c2)c(C2CC3CC(=O)CC3C2)n1` (stereo not drawn) [AIA-394], the half-maximal effective concentration (EC50) was 500 to 10000 nM.
With `Cn1cc(C(=O)Nc2ccc(F)c(Cl)c2)c(C2CC3CC(O)(CS(C)(=O)=O)CC3C2)n1` (stereo not drawn) [AIA-397], the EC50 was 500 to 10000 nM.
In the case of `Cn1nc(C2CC3CC4(CNC(=O)C4)CC3C2)c(C(=O)Nc2ccc(F)c(Cl)c2)c1N` (stereo not drawn) [HBV-AIA-039], the EC50 is less than 100 nM.

The same test, now with this note: Hepatitis B virus, HePAD38, 120 h, 5 days, supernatant HBV DNA by qPCR, read-out: Viral Load EC50 Activity range.
As to `Cn1nc([C@@H]2CC[C@@H](c3cnc(C(F)(F)F)s3)C2)c(C(=O)Nc2ccc(F)c(Cl)c2)c1N` [AIA-354, 5-Amino-N-(3-chloro-4-fluorophenyl)-1-methyl-3-((1R,3R)-3-(2-(trifluoromethyl)thiazol-5-yl)cyclopentyl)-1H-pyrazole-4-carboxamide], the EC50 lay in the range of 500 to 10000 nM.
The same measure, in the same setting: for `Cn1nc(C2CCC(c3csc(C(F)(F)F)n3)C2)c(C(=O)Nc2ccc(F)c(Cl)c2)c1N` (stereo not drawn) [AIA-355, 5-Amino-N-(3-chloro-4-fluorophenyl)-1-methyl-3-(3-(2-(trifluoromethyl)thiazol-4-yl)cyclopentyl)-1H-pyrazole-4-carboxamide] the value was 500 to 10000 nM; for `Cn1nc(C2CC3CC(O)(CN4CCOCC4)CC3C2)c(C(=O)Nc2ccc(F)c(Cl)c2)c1N` (stereo not drawn) [AIA-364-1, 5-Amin o-N-(3-chloro-4-fluorophenyl)-3-(5-hydroxy-5-(morpholinomethyl)octahydropentalen-2-yl)-1-methyl-1H-pyrazole-4-carboxamide], 500 to 10000 nM.
On the same count and under the same terms, the same measure for `COc1cc(-c2cn(C)cn2)ccc1C1CCC(c2nn(C)c(N)c2C(=O)Nc2ccc(F)c(Cl)c2)C1` (stereo not drawn) [AIA-365-1, 5-Amino-N-(3-chloro-4-fluorophenyl)-3-(3-(2-methoxy-4-(1-methyl-1H-imidazol-4-yl)phenyl)cyclopentyl)-1-methyl-1H-pyrazole-4-carboxamide]: 100 to 500 nM; for `COc1cc(-c2c[nH]cn2)ccc1C1CCC(c2nn(C)c(N)c2C(=O)Nc2ccc(F)c(Cl)c2)C1` (stereo not drawn) [AIA-366-1, 3-(3-(4-(1H-Imidazol-4-yl)-2-methoxyphenyl)cyclopentyl)-5-amino-N-(3-chloro-4-fluorophenyl)-1-methyl-1H-pyrazole-4-carboxamide]: 100 to 500 nM.
Same read-out and setting: the same measure for `COc1cc(-c2cnn(C)c2)ccc1C1CCC(c2nn(C)c(N)c2C(=O)Nc2ccc(F)c(Cl)c2)C1` (stereo not drawn) [AIA-369, 5-Amino-N-(3-chloro-4-fluorophenyl)-3-(3-(2-methoxy-4-(1-methyl-1H-pyrazol-4-yl)phenyl)cyclopentyl)-1-methyl-1H-pyrazole-4-carboxamide]: 100 to 500 nM.
As for `COc1cc(-c2nccs2)ccc1C1CCC(c2nn(C)c(N)c2C(=O)Nc2ccc(F)c(Cl)c2)C1` (stereo not drawn) [AIA-371, 5-Amino-N-(3-chloro-4-fluorophenyl)-3-(3-(2-methoxy-4-(thiazol-2-yl)phenyl)cyclopentyl)-1-methyl-1H-pyrazole-4-carboxamide], the half-maximal effective concentration (EC50) lay in the range of 500 to 10000 nM.
Still for that read-out and setting: for `COc1cc(-c2cscn2)ccc1C1CCC(c2nn(C)c(N)c2C(=O)Nc2ccc(F)c(Cl)c2)C1` (stereo not drawn) [AIA-372, 5-Amino-N-(3-chloro-4-fluorophenyl)-3-(3-(2-methoxy-4-(thiazol-4-yl)phenyl)cyclopentyl)-1-methyl-1H-pyrazole-4-carboxamide] the value was less than 100 nM; for `COc1cc(C(=O)NCCS(C)(=O)=O)ccc1C1CCC(c2nn(C)c(N)c2C(=O)Nc2ccc(F)c(Cl)c2)C1` (stereo not drawn) [AIA-387-1], 100 to 500 nM.
In the case of `COc1cc(C(=O)NCCN)ccc1C1CCC(c2nn(C)c(N)c2C(=O)Nc2ccc(F)c(Cl)c2)C1` (stereo not drawn) [AIA-388, 5-Amino-3-(3-(4-((2-aminoethyl)carbamoyl)-2-methoxyphenyl)cyclopentyl)-N-(3-chloro-4-fluorophenyl)-1-methyl-1H-pyrazole-4-carboxamide], the concentration for a half-maximal effect (EC50) is 100 to 500 nM.
Same read-out and setting: for `Cn1nc(C2CCC(c3cccnc3)C2)c(C(=O)Nc2ccc(F)c(Cl)c2)c1N` (stereo not drawn) [CP-AIA-270, 5-Amino-N-(3-chloro-4-fluorophenyl)-1-methyl-3-(3-(pyridin-3-yl)cyclopentyl)-1H-pyrazole-4-carboxamide] the value was less than 100 nM.

Usually EC50 stands for the midpoint of the concentration-response curve.
